Experiment [1] addresses Voltage-dependent T-type calcium channel subunit alpha-1H (Homo sapiens, UniProt O95180). The experiment can be described thus: Cav3.2 T-type channel blockers, cell-based, SynthLib3 library, HEK293 Cav3.2, fluorescence (AID 493041). It is filed as functional.
The target in experiment [2] is T1, Alkaline phosphatase, tissue-nonspecific isozyme (Homo sapiens, UniProt P05186).
T1 sequence (P05186 whole entry): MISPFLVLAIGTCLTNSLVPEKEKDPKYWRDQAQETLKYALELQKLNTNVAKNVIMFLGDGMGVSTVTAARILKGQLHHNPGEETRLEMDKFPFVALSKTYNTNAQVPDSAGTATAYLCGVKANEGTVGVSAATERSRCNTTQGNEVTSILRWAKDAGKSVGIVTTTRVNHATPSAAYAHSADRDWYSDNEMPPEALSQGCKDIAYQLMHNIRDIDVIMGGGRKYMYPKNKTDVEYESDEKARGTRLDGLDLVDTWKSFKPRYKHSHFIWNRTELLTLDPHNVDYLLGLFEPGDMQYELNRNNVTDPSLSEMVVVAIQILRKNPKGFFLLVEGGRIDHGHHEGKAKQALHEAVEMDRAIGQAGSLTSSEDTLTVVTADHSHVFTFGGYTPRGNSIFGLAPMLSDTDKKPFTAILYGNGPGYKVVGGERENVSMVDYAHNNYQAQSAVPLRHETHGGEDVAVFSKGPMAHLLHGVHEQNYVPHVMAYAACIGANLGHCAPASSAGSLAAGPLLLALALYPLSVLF

In experiment [3] the target is T2, Intestinal-type alkaline phosphatase (Mus musculus, UniProt P24822). The experiment can be described thus: PubChem AID 488874. It is filed as functional.
In experiment [4] the target is T3, Intestinal-type alkaline phosphatase (Homo sapiens, UniProt P09923). Description: human intestinal alkaline phosphatase activators, dose response, biochemical, luminescence, uHTS hits (AID 463120). It is filed as functional.
Experiment [5] concerns the target T3, Intestinal-type alkaline phosphatase. Description: human IAP activators, dose response, biochemical, luminescent, uHTS hits, set 2 (AID 488817).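 Note: potency of activators that raise enzyme activity.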 It is filed as functional.
The target in experiment [6] is T1, Alkaline phosphatase, tissue-nonspecific isozyme. Description: TNAP enzyme activators, dose response, selectivity assay for human IAP activator project, biochemical, TNAP isozyme, human IAP uHTS hits (AID 488886).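 Note: potency of compounds raising TNAP activity as a selectivity check on IAP activators.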 It is filed as functional.
Experiment [7] concerns the target Sphingosine 1-phosphate receptor 1 (Homo sapiens, UniProt P21453). Description: Fluorescence-based counterscreen assay for S1P4 agonists: Cell-based dose response high throughput screening assay to identify agonists of the Sphingosine 1-Phosphate Receptor 1 (S1P1). [Related pubchem assays (depositor defined):AID1509, AID1523, AID1801, AID463107, AID463118, AID463119, AID463122, AID463123, AID463129, AID463225, AID504400, AID504460]. It is filed as functional. For orientation: The purpose of a counterscreen is to sort out artefacts and off-target activity.

The target in experiment [8] is Sphingosine 1-phosphate receptor 4 (Homo sapiens, UniProt O95977). The experiment can be described thus: Fluorescence dose response cell-based high throughput screening assay for agonists of the Sphingosine 1-Phosphate Receptor 4 (S1P4). [Related pubchem assays: 1509 (Primary screen.), 1523 (Confirmation screen in triplicates.)]. It is filed as functional.
The target in experiment [9] is Sphingosine 1-phosphate receptor 2 (Homo sapiens, UniProt O95136). The experiment can be described thus: Dose Response Cell Based Assay for Agonists of the S1P2 Receptor. [Related pubchem assays: 729, 736, 843 ]. It is filed as functional.
Experiment [10] has as its target T4, Fatty acid synthase (Homo sapiens, UniProt P49327). The experiment can be described thus: FAS thioesterase domain inhibitors, dose response, biochemical, endpoint fluorescence intensity, uHTS hits (AID 624327).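 Note: fluorescence from hydrolysis of an O-methyl fluorescein acyl ester substrate by the enzyme.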 It is filed as functional.
Experiment [11] concerns the target T4, Fatty acid synthase. Description: FAS thioesterase domain inhibitors, dose response, biochemical, kinetic fluorescence intensity (AID 624326).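 Note: rate of fluorescence rise from hydrolysis of a fluorogenic O-methyl fluorescein ester substrate.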 It is filed as functional.
For experiment [12], the target named is Endoplasmic reticulum aminopeptidase 1 (Homo sapiens, UniProt Q9NZ08). Description: ERAP1 aminopeptidase inhibitors, dose response, biochemical, cherry-pick, set 2, plate reader (AID 743314).
Experiment [13] has as its system HEK293. Description: NOD1 signaling inhibitors, primary screen, cell-based, luminescence, uHTS (AID 1578). It is filed as functional. The note with it: Homo sapiens.
For experiment [14], the system named is HEK293. The experiment can be described thus: cells. It is filed as functional, cell-based. The note with it: Homo sapiens.
Experiment [15] deals with HEK293. Description: cells. The note with it: Homo sapiens. It is filed as functional, cell-based. The source holds these as a separate data set.
For experiment [16], the target named is Nucleotide-binding oligomerization domain-containing protein 2 (Homo sapiens, UniProt Q9HC29). The experiment can be described thus: NOD2 signaling inhibitors, cell-based, luminescence, uHTS, HEK293 (AID 1566). It is filed as functional.
The subject of experiment [17] is HEK293. Description: NOD2 signaling inhibitors in MDP-stimulated cells, cell-based, uHTS, luminescence (AID 2001). It is filed as functional. To be noted: Homo sapiens.
Experiment [18] relates to HEK293. Description: cells. It is filed as functional, cell-based. The note with it: Homo sapiens. The source holds these as a separate data set.
Experiment [19] deals with Tumor necrosis factor (Homo sapiens, UniProt P01375). Description: TNFa-triggered NF-kB activation inhibitors, SAR follow-up, cell-based, revised (AID 2337). It is filed as functional.
Experiment [20] has as its target Nucleotide-binding oligomerization domain-containing protein 1 (Homo sapiens, UniProt Q9Y239). Description: NOD1 signaling inhibitors, SAR follow-up, revised (AID 2333). It is filed as functional.
Experiment [21] deals with HEK293. Description: cells. To be noted: Homo sapiens.
Experiment [22] deals with T5, Tyrosine-protein phosphatase non-receptor type 7 (Homo sapiens, UniProt P35236).
T5 sequence (P35236 whole entry): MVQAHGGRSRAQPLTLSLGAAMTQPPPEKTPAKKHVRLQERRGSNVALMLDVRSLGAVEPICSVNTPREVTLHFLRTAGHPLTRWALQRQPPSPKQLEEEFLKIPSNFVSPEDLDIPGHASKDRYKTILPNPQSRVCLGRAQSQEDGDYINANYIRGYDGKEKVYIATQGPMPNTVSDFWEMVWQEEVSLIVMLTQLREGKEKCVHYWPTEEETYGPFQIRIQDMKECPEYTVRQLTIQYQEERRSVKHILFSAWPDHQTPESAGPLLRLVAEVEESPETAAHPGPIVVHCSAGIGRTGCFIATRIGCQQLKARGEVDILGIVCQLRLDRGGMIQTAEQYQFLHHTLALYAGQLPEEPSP
It is filed as functional.

The target of experiment [23] is T6, Tyrosine-protein phosphatase non-receptor type 22 (Homo sapiens, UniProt Q9Y2R2).
T6 sequence (Q9Y2R2 whole entry): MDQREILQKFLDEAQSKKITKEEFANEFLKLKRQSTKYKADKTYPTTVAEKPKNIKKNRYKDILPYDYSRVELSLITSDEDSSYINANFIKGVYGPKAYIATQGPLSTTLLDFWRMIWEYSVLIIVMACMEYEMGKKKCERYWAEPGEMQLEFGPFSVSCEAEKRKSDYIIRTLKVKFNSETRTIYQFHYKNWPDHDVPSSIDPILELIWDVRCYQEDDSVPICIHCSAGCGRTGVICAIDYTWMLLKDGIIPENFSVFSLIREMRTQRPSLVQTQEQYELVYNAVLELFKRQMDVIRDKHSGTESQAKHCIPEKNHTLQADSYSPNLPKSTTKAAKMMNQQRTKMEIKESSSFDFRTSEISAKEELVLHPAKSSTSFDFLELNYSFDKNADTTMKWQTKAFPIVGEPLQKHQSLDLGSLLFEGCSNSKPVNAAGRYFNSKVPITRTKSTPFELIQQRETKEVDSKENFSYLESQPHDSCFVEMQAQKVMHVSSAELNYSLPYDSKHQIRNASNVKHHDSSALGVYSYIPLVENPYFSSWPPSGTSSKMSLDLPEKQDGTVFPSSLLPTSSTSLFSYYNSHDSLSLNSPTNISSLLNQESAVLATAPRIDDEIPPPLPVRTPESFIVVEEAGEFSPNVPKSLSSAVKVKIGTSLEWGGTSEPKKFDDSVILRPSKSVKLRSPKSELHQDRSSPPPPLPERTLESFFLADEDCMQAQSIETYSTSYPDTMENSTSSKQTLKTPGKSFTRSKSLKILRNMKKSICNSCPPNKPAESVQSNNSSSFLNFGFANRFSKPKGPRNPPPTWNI
It is filed as functional.

The target of experiment [24] is T6, Tyrosine-protein phosphatase non-receptor type 22. It is filed as functional. This is another data set of the same source.
Experiment [25] concerns the target T3, Intestinal-type alkaline phosphatase. Description: activation of human intestinal alkaline phosphatase – biochemical, dose response (AID 488873). It is filed as functional.
The nature of experiment [26]: cytotoxicity in HEK-293T cells, dose response, cytotoxicity control for TCR NF-kB inhibitor project, luminescence, T-cell screen hits (AID 489026).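 Note: cells exposed to compound about 14 hours before the viability readout.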 It is filed as functional, cell-based.
Experiment [27] deals with T2, Intestinal-type alkaline phosphatase. The experiment can be described thus: mouse intestinal alkaline phosphatase activators, dose response, biochemical, luminescence, uHTS hits (AID 488783). It is filed as functional.
In experiment [28] the target is T1, Alkaline phosphatase, tissue-nonspecific isozyme. Description: TNAP enzyme activators, dose response, selectivity assay for mouse IAP activator project, biochemical, TNAP isozyme, mouse IAP uHTS hits (AID 488880). It is filed as functional.
Experiment [29] addresses T7, Apoptotic protease-activating factor 1 (Homo sapiens, UniProt O14727).
T7 sequence (O14727 whole entry): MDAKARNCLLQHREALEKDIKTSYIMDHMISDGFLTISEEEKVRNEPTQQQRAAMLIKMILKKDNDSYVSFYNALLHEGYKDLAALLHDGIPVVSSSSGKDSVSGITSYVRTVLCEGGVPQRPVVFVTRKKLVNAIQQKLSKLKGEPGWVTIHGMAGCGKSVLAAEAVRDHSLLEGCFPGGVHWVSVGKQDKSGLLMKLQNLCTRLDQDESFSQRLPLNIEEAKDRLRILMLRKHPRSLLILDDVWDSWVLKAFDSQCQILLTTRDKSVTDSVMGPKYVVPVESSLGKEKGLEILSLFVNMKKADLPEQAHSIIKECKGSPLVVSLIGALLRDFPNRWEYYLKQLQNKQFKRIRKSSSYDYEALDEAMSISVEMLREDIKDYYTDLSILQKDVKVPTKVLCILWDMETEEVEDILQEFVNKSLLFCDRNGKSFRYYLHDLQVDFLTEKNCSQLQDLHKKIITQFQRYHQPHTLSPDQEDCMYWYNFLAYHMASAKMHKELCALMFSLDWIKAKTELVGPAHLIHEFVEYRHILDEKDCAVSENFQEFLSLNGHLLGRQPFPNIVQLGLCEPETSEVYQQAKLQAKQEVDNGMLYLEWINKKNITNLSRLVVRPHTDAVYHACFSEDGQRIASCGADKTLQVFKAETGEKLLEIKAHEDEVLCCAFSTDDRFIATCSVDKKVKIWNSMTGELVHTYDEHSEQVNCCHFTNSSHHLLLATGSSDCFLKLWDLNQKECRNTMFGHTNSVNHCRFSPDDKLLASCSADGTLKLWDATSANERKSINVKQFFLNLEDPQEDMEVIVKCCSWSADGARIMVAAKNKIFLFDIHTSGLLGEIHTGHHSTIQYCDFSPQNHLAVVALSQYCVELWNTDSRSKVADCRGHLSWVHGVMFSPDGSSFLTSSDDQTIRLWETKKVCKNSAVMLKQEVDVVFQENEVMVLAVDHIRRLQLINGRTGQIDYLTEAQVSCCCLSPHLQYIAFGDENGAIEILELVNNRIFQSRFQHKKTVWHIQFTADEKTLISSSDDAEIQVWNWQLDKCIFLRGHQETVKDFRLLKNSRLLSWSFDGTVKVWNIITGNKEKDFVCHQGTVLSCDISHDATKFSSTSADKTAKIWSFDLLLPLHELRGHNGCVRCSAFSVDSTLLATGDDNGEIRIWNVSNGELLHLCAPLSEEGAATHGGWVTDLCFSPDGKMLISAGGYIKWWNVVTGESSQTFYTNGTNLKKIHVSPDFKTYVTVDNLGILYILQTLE
It is filed as functional.

Here are results for six compounds from ChEMBL document CHEMBL1201862, “PubChem BioAssay data set” (2004).

Molecules are shown by their SMILES. The source made the active and inactive calls.

T3 sequence (P09923 whole entry): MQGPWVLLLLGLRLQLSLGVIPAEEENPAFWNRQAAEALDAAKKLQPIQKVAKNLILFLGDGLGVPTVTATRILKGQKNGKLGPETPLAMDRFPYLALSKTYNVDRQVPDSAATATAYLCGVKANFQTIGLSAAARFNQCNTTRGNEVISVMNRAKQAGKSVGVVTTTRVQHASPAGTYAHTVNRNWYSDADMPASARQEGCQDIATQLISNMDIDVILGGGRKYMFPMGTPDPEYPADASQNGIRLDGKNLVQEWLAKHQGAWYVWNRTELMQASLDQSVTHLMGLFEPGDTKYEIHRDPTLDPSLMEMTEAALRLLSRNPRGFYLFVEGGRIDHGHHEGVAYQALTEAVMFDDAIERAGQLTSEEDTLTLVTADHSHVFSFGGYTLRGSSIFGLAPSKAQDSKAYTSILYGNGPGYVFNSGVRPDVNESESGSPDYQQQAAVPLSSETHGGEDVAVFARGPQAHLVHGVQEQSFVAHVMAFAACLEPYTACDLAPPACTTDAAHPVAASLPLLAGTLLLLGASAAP
T2 sequence (P24822 whole entry): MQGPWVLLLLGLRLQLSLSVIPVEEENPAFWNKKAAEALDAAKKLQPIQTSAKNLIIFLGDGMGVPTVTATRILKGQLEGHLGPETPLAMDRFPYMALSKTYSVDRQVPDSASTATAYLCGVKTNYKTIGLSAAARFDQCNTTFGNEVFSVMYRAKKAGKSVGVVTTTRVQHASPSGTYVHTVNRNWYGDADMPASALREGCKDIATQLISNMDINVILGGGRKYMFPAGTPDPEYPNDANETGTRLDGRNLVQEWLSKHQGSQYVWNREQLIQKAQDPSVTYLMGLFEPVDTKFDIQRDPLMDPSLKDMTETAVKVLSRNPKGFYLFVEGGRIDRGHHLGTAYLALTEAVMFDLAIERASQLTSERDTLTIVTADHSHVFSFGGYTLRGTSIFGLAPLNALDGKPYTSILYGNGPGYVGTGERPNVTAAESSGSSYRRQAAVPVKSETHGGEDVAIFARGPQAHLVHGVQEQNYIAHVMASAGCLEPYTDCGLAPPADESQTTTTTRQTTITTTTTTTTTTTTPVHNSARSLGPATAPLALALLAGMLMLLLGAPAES
T4 sequence (P49327 whole entry, the tested form may be a part): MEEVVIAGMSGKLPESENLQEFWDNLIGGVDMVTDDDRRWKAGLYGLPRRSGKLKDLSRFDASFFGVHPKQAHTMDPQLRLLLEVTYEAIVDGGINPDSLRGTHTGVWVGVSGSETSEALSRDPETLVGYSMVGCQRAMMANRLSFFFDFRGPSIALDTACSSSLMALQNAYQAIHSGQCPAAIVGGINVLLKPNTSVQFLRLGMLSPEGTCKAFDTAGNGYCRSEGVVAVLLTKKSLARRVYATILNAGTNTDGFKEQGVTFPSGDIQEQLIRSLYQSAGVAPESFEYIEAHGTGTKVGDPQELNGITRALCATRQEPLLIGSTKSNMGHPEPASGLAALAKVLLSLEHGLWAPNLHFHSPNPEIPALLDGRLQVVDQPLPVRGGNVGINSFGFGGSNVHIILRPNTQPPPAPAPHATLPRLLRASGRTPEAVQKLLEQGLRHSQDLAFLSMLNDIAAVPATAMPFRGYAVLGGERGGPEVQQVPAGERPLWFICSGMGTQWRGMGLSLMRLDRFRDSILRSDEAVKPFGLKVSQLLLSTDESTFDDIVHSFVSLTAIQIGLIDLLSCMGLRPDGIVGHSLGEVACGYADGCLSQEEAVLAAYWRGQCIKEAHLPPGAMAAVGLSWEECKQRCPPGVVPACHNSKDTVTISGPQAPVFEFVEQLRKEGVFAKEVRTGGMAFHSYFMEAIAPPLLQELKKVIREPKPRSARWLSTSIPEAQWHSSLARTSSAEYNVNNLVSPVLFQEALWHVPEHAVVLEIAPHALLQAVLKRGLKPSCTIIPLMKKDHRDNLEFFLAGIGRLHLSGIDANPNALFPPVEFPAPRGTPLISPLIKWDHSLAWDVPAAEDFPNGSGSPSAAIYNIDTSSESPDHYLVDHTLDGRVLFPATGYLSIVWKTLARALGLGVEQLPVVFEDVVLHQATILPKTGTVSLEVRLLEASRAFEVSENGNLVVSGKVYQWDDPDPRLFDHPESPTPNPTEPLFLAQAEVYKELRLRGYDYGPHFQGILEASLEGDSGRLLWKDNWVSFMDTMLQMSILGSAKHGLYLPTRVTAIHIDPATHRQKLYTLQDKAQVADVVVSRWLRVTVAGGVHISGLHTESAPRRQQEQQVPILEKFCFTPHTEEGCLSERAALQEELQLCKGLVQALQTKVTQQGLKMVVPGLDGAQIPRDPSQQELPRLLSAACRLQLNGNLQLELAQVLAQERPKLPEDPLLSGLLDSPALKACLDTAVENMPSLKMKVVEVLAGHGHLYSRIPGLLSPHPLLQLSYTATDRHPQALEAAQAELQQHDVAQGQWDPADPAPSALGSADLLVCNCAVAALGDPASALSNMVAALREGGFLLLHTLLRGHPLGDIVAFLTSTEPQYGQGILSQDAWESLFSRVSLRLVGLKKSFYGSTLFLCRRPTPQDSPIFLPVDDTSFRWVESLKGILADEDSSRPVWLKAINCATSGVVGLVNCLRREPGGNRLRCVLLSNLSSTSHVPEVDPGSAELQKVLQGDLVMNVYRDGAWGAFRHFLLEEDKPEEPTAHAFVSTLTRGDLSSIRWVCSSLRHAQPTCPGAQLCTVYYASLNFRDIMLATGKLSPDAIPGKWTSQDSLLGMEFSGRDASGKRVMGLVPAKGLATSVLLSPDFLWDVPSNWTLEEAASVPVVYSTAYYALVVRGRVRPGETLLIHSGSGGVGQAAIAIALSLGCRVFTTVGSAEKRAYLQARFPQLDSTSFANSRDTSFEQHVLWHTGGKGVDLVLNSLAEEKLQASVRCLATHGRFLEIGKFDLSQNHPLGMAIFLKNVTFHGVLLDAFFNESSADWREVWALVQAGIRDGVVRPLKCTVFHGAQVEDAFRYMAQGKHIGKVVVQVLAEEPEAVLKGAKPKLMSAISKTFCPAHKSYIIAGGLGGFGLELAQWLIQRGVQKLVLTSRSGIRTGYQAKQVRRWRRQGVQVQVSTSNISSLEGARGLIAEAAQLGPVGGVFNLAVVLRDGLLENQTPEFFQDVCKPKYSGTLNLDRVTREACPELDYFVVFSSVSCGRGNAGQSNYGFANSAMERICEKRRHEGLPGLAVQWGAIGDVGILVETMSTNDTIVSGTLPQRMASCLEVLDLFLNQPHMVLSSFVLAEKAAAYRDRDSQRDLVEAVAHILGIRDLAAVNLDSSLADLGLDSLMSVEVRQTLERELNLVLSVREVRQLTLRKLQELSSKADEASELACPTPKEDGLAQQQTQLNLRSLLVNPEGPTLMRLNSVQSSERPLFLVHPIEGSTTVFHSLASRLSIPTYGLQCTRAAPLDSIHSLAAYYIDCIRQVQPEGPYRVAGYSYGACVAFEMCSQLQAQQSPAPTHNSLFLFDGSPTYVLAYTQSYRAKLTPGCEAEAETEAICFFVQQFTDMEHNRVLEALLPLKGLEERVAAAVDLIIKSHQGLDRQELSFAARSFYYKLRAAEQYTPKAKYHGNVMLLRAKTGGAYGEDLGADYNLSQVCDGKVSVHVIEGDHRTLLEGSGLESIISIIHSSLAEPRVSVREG
Chain of Sphingosine 1-phosphate receptor 4 (O95977 whole entry): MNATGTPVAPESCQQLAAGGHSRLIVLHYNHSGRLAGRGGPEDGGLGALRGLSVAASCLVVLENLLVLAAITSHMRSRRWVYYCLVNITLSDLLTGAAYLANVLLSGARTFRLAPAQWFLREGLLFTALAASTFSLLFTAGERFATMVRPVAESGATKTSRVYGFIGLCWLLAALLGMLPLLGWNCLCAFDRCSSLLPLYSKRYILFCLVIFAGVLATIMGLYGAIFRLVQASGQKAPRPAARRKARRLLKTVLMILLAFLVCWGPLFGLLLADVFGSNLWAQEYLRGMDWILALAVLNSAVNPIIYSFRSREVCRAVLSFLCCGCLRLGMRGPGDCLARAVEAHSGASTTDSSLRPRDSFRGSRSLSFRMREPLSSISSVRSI
Chain of Endoplasmic reticulum aminopeptidase 1 (Q9NZ08 whole entry): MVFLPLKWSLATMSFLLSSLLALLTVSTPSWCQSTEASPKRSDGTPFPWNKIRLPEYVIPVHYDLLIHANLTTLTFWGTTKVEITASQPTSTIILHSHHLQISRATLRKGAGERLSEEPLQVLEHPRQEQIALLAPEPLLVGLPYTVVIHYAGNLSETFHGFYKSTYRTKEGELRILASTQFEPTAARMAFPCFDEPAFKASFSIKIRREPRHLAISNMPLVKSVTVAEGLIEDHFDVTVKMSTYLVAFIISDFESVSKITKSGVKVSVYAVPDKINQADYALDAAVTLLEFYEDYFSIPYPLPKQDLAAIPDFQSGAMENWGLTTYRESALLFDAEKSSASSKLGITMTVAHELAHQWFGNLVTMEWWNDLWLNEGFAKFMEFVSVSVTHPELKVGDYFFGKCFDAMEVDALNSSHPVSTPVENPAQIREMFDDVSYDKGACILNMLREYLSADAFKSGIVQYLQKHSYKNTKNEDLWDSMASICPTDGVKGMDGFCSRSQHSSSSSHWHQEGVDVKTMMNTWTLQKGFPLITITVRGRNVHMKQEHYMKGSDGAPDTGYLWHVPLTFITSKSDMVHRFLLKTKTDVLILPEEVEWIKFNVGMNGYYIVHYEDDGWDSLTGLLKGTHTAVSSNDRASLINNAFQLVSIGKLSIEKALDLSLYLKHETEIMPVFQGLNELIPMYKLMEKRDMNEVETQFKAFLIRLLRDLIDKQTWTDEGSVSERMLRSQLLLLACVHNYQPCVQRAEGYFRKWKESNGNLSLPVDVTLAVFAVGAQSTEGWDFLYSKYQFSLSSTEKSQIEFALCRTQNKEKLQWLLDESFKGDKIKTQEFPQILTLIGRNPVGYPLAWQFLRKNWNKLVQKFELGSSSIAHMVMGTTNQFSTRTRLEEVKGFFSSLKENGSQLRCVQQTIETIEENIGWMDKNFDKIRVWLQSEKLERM

On to `CC(C)Cc1nnc(NC(=O)COc2ccc(Cl)cc2Cl)o1`, for which, in [1], the EC50 was 1.8 µM (active).

For `CCCOCC(O)CC(CC)C(=O)NNC(=S)Nc1ccccc1` (centres undefined), the EC50 is > 100 µM (not active) in [2], 14.1 µM (active) in [4], 15.1 µM (active) in experiment [5] and 16.2 µM (active) in experiment [6]. Further, in experiment [3], the IC50 was 69.5 µM (active).

For the compound `O=S(=O)(c1ccc(N2CCC(c3ccc(Cl)cc3)=N2)cc1)N(CCO)CCO`, the EC50 was 3.12 µM (active) in experiment [7], 3.65 µM (active) in [8] and 1.95 µM (active) in experiment [9]. Besides, the IC50 in experiment [10] is 0.434 µM (active); in experiment [11], 0.469 µM (active). The AC50 in experiment [12] was 13 µM (active).

As to `O=C(Nc1nnc(S(=O)(=O)N2CCCCCC2)s1)c1ccc(Br)cc1`, the EC50 in [13] was 1.56 µM (active); in experiment [16], 10.4 µM (active). In addition, the IC50 in [14] is 14.2 µM (active); in experiment [15] it was > 20 µM (inactive); in [17] it was 18.1 µM (inactive); in experiment [18] it was > 20 µM (inactive); in experiment [19], > 20 µM (inactive); in experiment [20] it was 5.53 µM (active). For the same compound, the IC50 in experiment [21] was > 20 µM (inactive).

Regarding `Cc1cc(C(=O)NCCCN2CCCC2=O)cs1`, the IC50 in experiment [22], in experiment [23] and in experiment [24] was > 79.4 µM (inactive) throughout.

Take `Cc1cc(O)c2c(c1O)C(=O)[C@]13C(=C2O)C(=O)[C@@H]2[C@@H](O)[C@H]1[C@@H]1[C@H](O)[C@H]3C(=O)C3=C(O)c4c(O)cc(C)c(O)c4C(=O)[C@]312`: the EC50 was 63.3 µM (active) in [25], 43.1 µM (active) in [27] and 51.2 µM (active) in experiment [28]. Besides, the IC50 was > 80 µM (inactive) in experiment [26] and 19.5 µM (active) in [29].

For orientation: EC50 means the midpoint of the concentration-response curve. Usually IC50 stands for the concentration needed to halve the response being measured. By AC50 is commonly meant the concentration giving half of the maximal activity seen.
